Reference: patent US20230150932A1, “COMPOSITIONS FOR STABILIZING AN ISOTHIOCYANATE” (VIO CHEMICALS AG, priority 2020, published 2023)

Experiments:
[1] = Stability study by HPLC, storage under Conditions A (bench, 20-25° C.); format: physicochemical; settings: Conditions A 20-25° C.; for RRT 0.96: impurity; for RRT 0.76: thiourea degradation impurity
Method: (§1) The storage conditions studied in the present invention are of three types:
(§2) In all three above types of conditions, the storage media is a simple dark glass vial or round-bottomed flask. Each sample is blown with Argon before securing the cap. No further treatment regarding the atmosphere is performed. The vial is capped and secured by use of a commercially available appropriate means for sealing the cap, e.g. Parafilm. The storage media is not restrictive with respect to the present invention.
(§3) The Sulforaphane formulations were analyzed with HPLC (PDA/UV at 240 nm) using standards for identification and quantification purpose.
(§4) Take 1 mL of H3PO4 into a 1 L volumetric flask containing about 500 mL of water, dilute to the volume with water and mix well/Acetonitrile.
(§5) Transfer accurately about 20 mg of sample in to a 20 mL clean and dry volumetric flask. Dilute to the volume with diluent.
(§6) Sulphoraphane retention time is about 20 mins
(§7) Conditions A: bench (20-25° C.) Conditions B: fridge, 2-8° C. Conditions C: fridge-freezer, (−15) ° C.

[2] = Stability study by HPLC, storage under Conditions C (fridge-freezer, -15° C.); format: physicochemical; settings: Conditions C -15° C.; for RRT 0.96: impurity; for RRT 0.76: thiourea degradation impurity
Method: as §1, §2, §3, §4, §5, §6, §7

[3] = left on bench for 6 months; HPLC
Text: In order to determine the structure of the major degradation impurity found in the present study (RRT 0.76) a sample of synthetically produced Sulforaphane was left on bench for 6 months.

[4] = diluted in water, heated at 80° C. for 24 hrs; HPLC

C[S+]([O-])CCCCN=C=S (stereo not drawn) [Comparative Example 3, 4-(methylsulfinyl)butylisothiocyanate]
Sulfone ([1]; 1 month): 1.31
Sulforaphane ([1]; 1 month): 36.35
RRT 0.96 ([1]; 1 month): 3.88
RRT 0.76 ([1]; 1 month): 29.16
Sulfone ([1]; 2 months): 0.84
Sulforaphane ([1]; 2 months): 24.51
RRT 0.96 ([1]; 2 months): 3.95
RRT 0.76 ([1]; 2 months): 34.37
Sulfone ([1]; 3 months): 0.78
Sulforaphane ([1]; 3 months): 19.98
RRT 0.96 ([1]; 3 months): 4.11
RRT 0.76 ([1]; 3 months): 38.38
Sulfone ([1]; 7 days): 2.32
Sulforaphane ([1]; 7 days): 65.48
RRT 0.96 ([1]; 7 days): 2.62
RRT 0.76 ([1]; 7 days): 15.87
Sulfone ([1]; 15 days): 1.92
Sulforaphane ([1]; 15 days): 53.28
RRT 0.96 ([1]; 15 days): 3.20
RRT 0.76 ([1]; 15 days): 21.61
Sulfone ([1]; zero time): 3.40
Sulforaphane ([1]; zero time): 94.74
RRT 0.96 ([1]; zero time): 0.15
RRT 0.76 ([1]; zero time): 0.01
Sulfone ([2]; 1 month): 3.4
Sulforaphane ([2]; 1 month): 94.27
RRT 0.96 ([2]; 1 month): 0.23
RRT 0.76 ([2]; 1 month): 0.25
Sulfone ([2]; 2 months): 3.42
Sulforaphane ([2]; 2 months): 94.43
RRT 0.96 ([2]; 2 months): 0.25
RRT 0.76 ([2]; 2 months): 0.27
Sulfone ([2]; 3 months): 3.44
Sulforaphane ([2]; 3 months): 94.51
RRT 0.96 ([2]; 3 months): 0.51
RRT 0.76 ([2]; 3 months): 0.23
Sulfone ([2]; 7 days): 3.38
Sulforaphane ([2]; 7 days): 95.21
RRT 0.96 ([2]; 7 days): 0.15
Sulforaphane ([2]; 15 days): 97.23
RRT 0.96 ([2]; 15 days): 0.03
RRT 0.76 ([2]; 15 days): 0.62
Sulfone ([2]; zero time): 3.40
Sulforaphane ([2]; zero time): 94.74
RRT 0.96 ([2]; zero time): 0.15
RRT 0.76 ([2]; zero time): 0.01
percentage of impurity RRT 0.76 [3]: about 74.8%
impurity RRT 0.76 detected (chromatographic purity) [4]: more than 93%
